Experimental data reported in US20070269512A1, “GASTRORETENTIVE SUSTAINED RELEASE FORMULATIONS” (priority 2006, published 2007).

Test: Pharmacokinetic study, plasma concentrations by LC-MS/MS
Parameters: species or system beagle dogs
Conditions: dog, in vivo
Protocol: Each overnight-fasted dog in group 1 received an intravenous bolus dose administration (1 mg/kg) of the compound of Formula (I). Following i.v. dose administration, blood samples (˜3 mL) were collected via jugular venipuncture, or other suitable site, into EDTA tubes and placed on wet ice, at predose (0.0), 0.25, 0.5, 1, 2, 4, 8, and 24 hours post dose. Each overnight-fasted dog in groups 2-5 received a single oral dose (200 mg) of compound of Formula (I). Following oral dose administration, blood samples (˜3 mL) were collected via jugular venipuncture, or other suitable site, into EDTA tubes and placed on wet ice, at predose (0.0), 0.25, 0.5, 1, 2, 4, 8, 24, 36, and 48 hours post dose. Plasma was harvested by centrifugation, each plasma sample are split into approximately equal parts before being frozen at −70° C. Food was returned after the 4 hour blood sample is collected. All samples were processed within two hours of collection. All samples are labeled with the study number, test article, dose, time interval, species, and animal identification number.
One set of plasma samples were analyzed for unchanged compound of Formula (I) concentrations using a liquid chromatographic-triple quadrupole mass spectrometric (LC-MS/MS) assay procedure. Any remaining plasma was retained for possible metabolite profiling. […]

- colonic absorption: very poor colonic absorption
Compound: Cc1cnc(NCC(F)(F)c2ccccc2)c(=O)n1CC(=O)NCCONC(=N)N [Compound X]
